Values quoted from earlier work as cited in article PMC3420346 (Bioorganic & medicinal chemistry, 2012).

Key:
[1] = system: thrombus formation
[2] = compared with related 9-riboside derivatives

In the case of `CNc1nc(I)nc2c1ncn2[C@H]1C[C@H](OP(=O)(O)O)[C@]2(COP(=O)(O)O)C[C@H]12` [Compound 1, (1′R,2′S,4′S,5′S)-4-(2-iodo-6-methylamino-purin-9-yl)-1-[(phosphato)-methyl]-2-(phosphato)-bicyclo[3.1.0]hexane], the “Reduction of thrombus formation in vivo” value [1] is given as “effective in reducing thrombus formation in vivo” and the Resistance to degradation [2] is given as “more resistant to degradation than related 9-riboside derivatives”.
